Test results taken from patent US9302999B2, “Substituted triazoles as herbicides” (E. I. DU PONT DE NEMOURS AND COMPANY, priority 2012, dated 2016).

Tests used:
Format in all cases: in vivo
[1] = system: barnyardgrass (Echinochloa crus-galli); assay: Test A pre-/postemergence: barnyardgrass
How it was run: (§1)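 Rating scale 0–100 (100 = complete control), visual, ~10 days after application in the greenhouse. Applications: preemergence directed soil spray; postemergence at 1–2 leaves.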

[2] = system: crabgrass, large (large crabgrass, Digitaria sanguinalis); assay: Test A pre-/postemergence: crabgrass, large
How it was run: as §1

[3] = system: foxtail, giant (giant foxtail, Setaria faberii); assay: Test A pre-/postemergence: foxtail, giant
How it was run: as §1

[4] = system: morningglory (Ipomoea spp.); assay: Test A pre-/postemergence: morningglory
How it was run: as §1

[5] = system: pigweed (Amaranthus retroflexus); assay: Test A pre-/postemergence: pigweed
How it was run: as §1

[6] = system: velvetleaf (Abutilon theophrasti); assay: Test A pre-/postemergence: velvetleaf
How it was run: as §1

[7] = system: wheat (Triticum aestivum); assay: Test A pre-/postemergence: wheat
How it was run: as §1

corn (Zea mays) = assay: Test A pre-/postemergence: corn
How it was run: as §1

rice (Oryza sativa) = assay: Test B flooded paddy: rice; details: Flood, applied to paddy water at 2-leaf stage, visually evaluated after 13 to 15 days
How it was run: (§2)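 Response scored visually, 0–100 relative to controls, 13–15 days after the compound was applied into paddy water; plants were at the 2-leaf stage in pots kept flooded to 3 cm.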

[8] = system: sedge, umbrella (small-flower umbrella sedge Cyperus difformis); assay: Test B flooded paddy: sedge, umbrella; details: Flood, applied to paddy water at 2-leaf stage, visually evaluated after 13 to 15 days
How it was run: as §2

[9] = system: ducksalad (Heteranthera limosa); assay: Test B flooded paddy: ducksalad; details: Flood, applied to paddy water at 2-leaf stage, visually evaluated after 13 to 15 days
How it was run: as §2

[10] = system: barnyardgrass (Echinochloa crus-galli); assay: Test B flooded paddy: barnyardgrass; details: Flood, applied to paddy water at 2-leaf stage, visually evaluated after 13 to 15 days
How it was run: as §2

[11] = Postemergence, 125 g ai/ha, 0 to 100 scale, 0 is no effect, 100 is complete control
[12] = Postemergence, 500 g ai/ha, 0 to 100 scale, 0 is no effect, 100 is complete control
[13] = Preemergence, 125 g ai/ha, 0 to 100 scale where 0 is no effect and 100 is complete control
[14] = Preemergence, 500 g ai/ha, 0 to 100 scale (0 no effect, 100 complete control)
[15] = Postemergence, 500 g ai/ha, visual rating on 0 to 100 scale (0 no effect, 100 complete control), approximately ten days

Structure (SMILES)	Plant response rating, Barnyardgrass [1, 13]	Plant response rating, Barnyardgrass [1, 14]	Plant response rating, Crabgrass, Large [2, 13]	Plant response rating, Crabgrass, Large [2, 14]	Plant response rating, Foxtail, Giant [3, 13]	Plant response rating, Foxtail, Giant [3, 14]	Plant response rating, Morningglory [4, 11]	Plant response rating, Morningglory [4, 13]	Plant response rating, Morningglory [4, 14]	Plant response rating, Pigweed [5, 11]	Plant response rating, Pigweed [5, 13]	Plant response rating, Pigweed [5, 14]	Plant response rating, Velvetleaf [6, 11]	Plant response rating, Velvetleaf [6, 13]	Plant response rating, Velvetleaf [6, 14]	Plant response rating, Wheat [7, 11]	Plant response rating, Wheat [7, 13]	Plant response rating, Wheat [7, 14]	Plant response rating, Corn (corn (Zea mays); [13])	Plant response rating, Corn (corn (Zea mays); [14])	other results
CC(C)COc1nn(-c2ccc(C(F)(F)F)cc2)nc1Cc1ccnc(C(F)(F)F)c1 [Compound 193]	0	0	0	40	10	70	10	0	0	70	0	20	30	0	0	0	0	0	0	0	Plant response rating, Barnyardgrass [1, 11]: 10; Barnyardgrass plant response rating [1, 12]: 20; Plant response rating, Crabgrass, Large [2, 11]: 10; Crabgrass, Large plant response rating [2, 12]: 30; Plant response rating, Foxtail, Giant [3, 11]: 10; Foxtail, Giant plant response rating [3, 12]: 20; Morningglory plant response rating [4, 12]: 40; Pigweed plant response rating [5, 12]: 100; Velvetleaf plant response rating [6, 12]: 70; Wheat plant response rating [7, 12]: 10; Plant response rating, Corn (corn (Zea mays); [11]): 10; Corn plant response rating (corn (Zea mays); [12]): 30; Plant response rating, Rice (0 to 100 scale, 0 is no effect, 100 is complete control) (rice (Oryza sativa); 125 g ai/ha): 0; Plant response rating, Sedge, Umbrella (0 to 100 scale, 0 is no effect, 100 is complete control) ([8]; 125 g ai/ha): 0; Plant response rating, Ducksalad (0 to 100 scale, 0 is no effect, 100 is complete control) ([9]; 125 g ai/ha): 0; Plant response rating, Barnyardgrass (0 to 100 scale, 0 is no effect, 100 is complete control) ([10]; 125 g ai/ha): 0
CCc1nn(-c2ccc(F)cc2F)nc1Oc1ccnc(C(F)F)c1 [Compound 181]	0	20	10	80	10	80	90	0	10	90	60	90	30	0	0	0	0	0	0	0	Plant response rating, Barnyardgrass [1, 11]: 0; Barnyardgrass plant response rating [1, 12]: 30; Plant response rating, Crabgrass, Large [2, 11]: 50; Crabgrass, Large plant response rating [2, 12]: 50; Plant response rating, Foxtail, Giant [3, 11]: 30; Foxtail, Giant plant response rating [3, 12]: 80; Morningglory plant response rating [4, 12]: 90; Pigweed plant response rating [5, 12]: 100; Velvetleaf plant response rating [6, 12]: 70; Wheat plant response rating [7, 12]: 20; Plant response rating, Corn (corn (Zea mays); [11]): 0; Corn plant response rating (corn (Zea mays); [12]): 10; Plant response rating, Rice (0 to 100 scale, 0 is no effect, 100 is complete control) (rice (Oryza sativa); 125 g ai/ha): 20; Plant response rating, Sedge, Umbrella (0 to 100 scale, 0 is no effect, 100 is complete control) ([8]; 125 g ai/ha): 0; Plant response rating, Ducksalad (0 to 100 scale, 0 is no effect, 100 is complete control) ([9]; 125 g ai/ha): 0; Plant response rating, Barnyardgrass (0 to 100 scale, 0 is no effect, 100 is complete control) ([10]; 125 g ai/ha): 0
FC(F)(F)c1cccc(-n2nc(Oc3ccnc(C(F)(F)F)c3)c(C3CC3)n2)c1 [Compound 200]	0	0	80	100	70	100	10	0	10	50	50	100	10	0	0	0	0	0	0	0	Plant response rating, Barnyardgrass [1, 11]: 0; Barnyardgrass plant response rating [1, 12]: 10; Plant response rating, Crabgrass, Large [2, 11]: 10; Crabgrass, Large plant response rating [2, 12]: 40; Plant response rating, Foxtail, Giant [3, 11]: 10; Foxtail, Giant plant response rating [3, 12]: 20; Morningglory plant response rating [4, 12]: 30; Pigweed plant response rating [5, 12]: 100; Velvetleaf plant response rating [6, 12]: 40; Wheat plant response rating [7, 12]: 0; Plant response rating, Corn (corn (Zea mays); [11]): 10; Corn plant response rating (corn (Zea mays); [12]): 20; Plant response rating, Rice (0 to 100 scale, 0 is no effect, 100 is complete control) (rice (Oryza sativa); 125 g ai/ha): 0; Plant response rating, Sedge, Umbrella (0 to 100 scale, 0 is no effect, 100 is complete control) ([8]; 125 g ai/ha): 0; Plant response rating, Ducksalad (0 to 100 scale, 0 is no effect, 100 is complete control) ([9]; 125 g ai/ha): 0; Plant response rating, Barnyardgrass (0 to 100 scale, 0 is no effect, 100 is complete control) ([10]; 125 g ai/ha): 0
Cc1cc(Oc2nn(-c3ccc(F)cc3)nc2C)ccn1 [Compound 135]	0	0	0	0	0	0	0	0	0	20	0	0	10	0	0	0	0	0	0	0	Barnyardgrass plant response rating [1, 11]: 0; Barnyardgrass plant response rating [1, 15]: 10; Crabgrass, Large plant response rating [2, 11]: 10; Crabgrass, Large plant response rating [2, 15]: 20; Foxtail, Giant plant response rating [3, 11]: 0; Foxtail, Giant plant response rating [3, 15]: 10; Morningglory plant response rating [4, 15]: 10; Pigweed plant response rating [5, 15]: 50; Velvetleaf plant response rating [6, 15]: 30; Wheat plant response rating [7, 15]: 0; Corn plant response rating (corn (Zea mays); [11]): 10; Corn plant response rating (corn (Zea mays); [15]): 20; Plant response rating, Rice (0 to 100 scale, 0 is no effect, 100 is complete control) (rice (Oryza sativa); 250 g ai/ha): 0; Plant response rating, Sedge, Umbrella (0 to 100 scale, 0 is no effect, 100 is complete control) ([8]; 250 g ai/ha): 0; Plant response rating, Ducksalad (0 to 100 scale, 0 is no effect, 100 is complete control) ([9]; 250 g ai/ha): 0; Plant response rating, Barnyardgrass (0 to 100 scale, 0 is no effect, 100 is complete control) ([10]; 250 g ai/ha): 0
